Data published in ChEMBL document CHEMBL1201862, “PubChem BioAssay data set” (2004).
Activity calls are given as the source filed them.

Experiments:
Melanocortin receptor 4 [1] = target: T1, Melanocortin receptor 4 (Homo sapiens, UniProt P32245); assay: MC4R antagonist potency on cAMP, dose response, cell-based, TR-FRET, biased antagonists (AID 602298); assay type: functional;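 also: antagonist potency against agonist-stimulated cAMP production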
[2] = nonselective inhibitors of cellular cAMP signaling, dose response, counter-screen for MC4R biased antagonist project, cell-based, TR-FRET cAMP detection (AID 602305); assay type: functional;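 also: U2OS cells stimulated with forskolin near its EC80 as the cAMP inducer; potency is for inhibition of forskolin-stimulated cAMP signaling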
[3] = Luminescence Cell-Based Dose Confirmation HTS to Identify Activators of 5'UTR Stem-Loop Driven Alpha-Synuclein mRNA Translation in H4 Neuroglioblastoma Cells. [Related pubchem assays: 1829 (Project Summary), 1814 (Primary HTS)]; assay type: functional
[4] = Luminescence Cell-Based Dose Response HTS to Identify Activators of Luciferase Translation or Activity in H4 […] Cells. [Related pubchem assays: 1829 (Project Summary), 1814 (Primary HTS)]; assay type: functional
H4 = assay: Luminescence Cell-Based Dose Response HTS to Identify Activators of 5'UTR Stem-Loop Driven Prion Protein mRNA Translation in H4 Neuroglioblastoma Cells. [Related pubchem assays: 1829 (Project Summary), 1814 (Primary HTS)]; assay type: functional; conditions: Homo sapiens
Vero [5] = assay: cells; assay type: functional, cell-based; conditions: Chlorocebus sabaeus
INS1 = assay: beta cell apoptosis inhibitors, cytokine rescue, dose response, luminescence, retest (AID 449756); assay type: functional, cell-based; conditions: Rattus norvegicus;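 also: cell death triggered by IL-1 beta plus TNF-alpha plus IFN-gamma mixture; protective hits raise ATP signal compared with cytokine alone wells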
Vero [6] = assay: cells; assay type: functional; conditions: Chlorocebus sabaeus
[7] = Shn3 3'UTR reporter inhibitors, dose response, cell-based, Clone20 osteoblasts, firefly luciferase, cherry-picked (AID 624132); assay type: functional;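 also: firefly luciferase luminescence from reporter carrying the Shn3 3'UTR in osteoblasts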
[8] = HepG2 cell cytotoxicity, dose response, cytotoxicity control for Shn3 inhibitor project, CellTiter-Glo, cherry-picked (AID 624134); assay type: functional, cell-based
[9] = control 3'UTR Renilla luciferase suppression, dose response, counter-screen for Shn3 inhibitor project, cell-based, Clone20-Shn3RL, cherry-picked (AID 624133); assay type: functional
Interleukin-8 [10] = target: T2, Interleukin-8 (Homo sapiens, UniProt P10145); assay: Dose Response confirmation of uHTS small molecule hits for cystic fibrosis induced NFkb Inhibitors in a TNFa-induced IL8 counterscreen.; assay type: functional; conditions: read-out: IC50_Mean
T2 sequence (P10145 whole entry): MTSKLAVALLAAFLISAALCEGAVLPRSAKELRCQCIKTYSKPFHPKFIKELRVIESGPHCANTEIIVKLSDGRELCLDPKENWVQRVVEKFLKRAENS

Interleukin-8 [11] = target: T2, Interleukin-8; assay: Dose Response confirmation of uHTS small molecule hits for cystic fibrosis induced NFkb Inhibitors in a PAF-induced IL8 counterscreen.; assay type: functional; conditions: read-out: IC50_Mean
Melanocortin receptor 4 [12] = target: T1, Melanocortin receptor 4; assay type: functional, cell-based
HEK293 = assay: inhibitors of LMP1-driven NF-kB reporter, dose response, cell-based, HEK293, luciferase, cherry-pick (AID 588343); assay type: functional; conditions: Homo sapiens
[13] = target: T3, Replicative DNA helicase DnaB (Mycobacterium tuberculosis, UniProt P9WMR3); assay: DnaB intein splicing inhibitors, dose response, biochemical, cell-free fluorescence (AID 449749); assay type: functional
T3 sequence (P9WMR3 whole entry): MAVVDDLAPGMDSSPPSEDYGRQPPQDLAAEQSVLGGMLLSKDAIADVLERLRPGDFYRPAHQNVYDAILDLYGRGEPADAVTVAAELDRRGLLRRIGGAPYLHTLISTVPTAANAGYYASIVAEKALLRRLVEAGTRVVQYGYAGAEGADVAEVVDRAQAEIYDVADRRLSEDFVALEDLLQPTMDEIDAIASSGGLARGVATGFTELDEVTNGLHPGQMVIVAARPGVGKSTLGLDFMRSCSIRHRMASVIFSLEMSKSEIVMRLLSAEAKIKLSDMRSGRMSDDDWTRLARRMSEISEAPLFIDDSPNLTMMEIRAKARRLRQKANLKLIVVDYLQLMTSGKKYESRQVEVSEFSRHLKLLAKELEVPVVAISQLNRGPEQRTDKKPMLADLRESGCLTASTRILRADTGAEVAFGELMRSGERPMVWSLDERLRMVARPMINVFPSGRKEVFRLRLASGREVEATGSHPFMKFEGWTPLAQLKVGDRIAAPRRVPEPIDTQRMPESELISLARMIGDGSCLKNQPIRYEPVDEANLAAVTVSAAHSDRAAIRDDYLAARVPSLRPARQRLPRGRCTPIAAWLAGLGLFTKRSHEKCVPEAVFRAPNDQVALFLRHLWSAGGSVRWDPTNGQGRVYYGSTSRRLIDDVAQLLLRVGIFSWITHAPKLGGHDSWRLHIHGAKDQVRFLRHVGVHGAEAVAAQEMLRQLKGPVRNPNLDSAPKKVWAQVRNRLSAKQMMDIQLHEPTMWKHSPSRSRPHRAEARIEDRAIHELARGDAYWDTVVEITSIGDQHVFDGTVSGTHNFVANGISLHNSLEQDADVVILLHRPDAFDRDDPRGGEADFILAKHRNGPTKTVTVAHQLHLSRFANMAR

Protein RecA = target: T4, Protein RecA (Mycobacterium tuberculosis, UniProt P9WHJ3); assay: Fluorescence Cell-Free Homogeneous Dose Retest to Identify Inhibitors of RecA-Intein Splicing Activity. [Related pubchem assays (depositor defined):AID2097, AID2223, AID489010, AID492950]; assay type: functional
T4 sequence (P9WHJ3 whole entry): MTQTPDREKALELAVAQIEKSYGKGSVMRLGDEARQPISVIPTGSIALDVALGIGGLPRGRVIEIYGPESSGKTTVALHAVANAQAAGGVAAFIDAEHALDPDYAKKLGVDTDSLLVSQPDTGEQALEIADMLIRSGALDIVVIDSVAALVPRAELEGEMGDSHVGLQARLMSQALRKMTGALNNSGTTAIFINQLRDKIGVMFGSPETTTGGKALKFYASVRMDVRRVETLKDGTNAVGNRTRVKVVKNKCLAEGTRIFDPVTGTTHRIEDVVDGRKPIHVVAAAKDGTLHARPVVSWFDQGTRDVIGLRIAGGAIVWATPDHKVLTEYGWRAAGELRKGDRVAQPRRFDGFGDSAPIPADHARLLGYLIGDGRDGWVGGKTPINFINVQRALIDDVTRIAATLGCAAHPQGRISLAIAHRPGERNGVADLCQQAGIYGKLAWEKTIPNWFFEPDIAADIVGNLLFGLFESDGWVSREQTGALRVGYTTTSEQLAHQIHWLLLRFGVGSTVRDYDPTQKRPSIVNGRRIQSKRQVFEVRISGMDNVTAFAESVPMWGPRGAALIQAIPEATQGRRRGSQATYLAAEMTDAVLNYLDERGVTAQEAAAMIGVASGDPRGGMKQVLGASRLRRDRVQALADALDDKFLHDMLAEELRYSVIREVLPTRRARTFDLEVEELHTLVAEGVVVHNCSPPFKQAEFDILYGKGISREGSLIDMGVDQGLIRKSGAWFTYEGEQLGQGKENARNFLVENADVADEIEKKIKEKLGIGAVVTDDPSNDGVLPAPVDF

[14] = target: Dual specificity tyrosine-phosphorylation-regulated kinase 1A (Rattus norvegicus, UniProt Q63470); assay type: biochemical, Homo sapiens
[15] = HeLa cell cytotoxicity, dose response, cytotoxicity control for MgcRacGAP inhibitor project (AID 624300); assay type: functional
[16] = target: T5, Rac GTPase-activating protein 1 (Homo sapiens, UniProt Q9H0H5); assay: MgcRacGAP GTPase-activating activity inhibitors, confirmation, biochemical, ADP Hunter fluorescence, primary and confirmatory (AID 624330); assay type: functional
T5 sequence (Q9H0H5 whole entry): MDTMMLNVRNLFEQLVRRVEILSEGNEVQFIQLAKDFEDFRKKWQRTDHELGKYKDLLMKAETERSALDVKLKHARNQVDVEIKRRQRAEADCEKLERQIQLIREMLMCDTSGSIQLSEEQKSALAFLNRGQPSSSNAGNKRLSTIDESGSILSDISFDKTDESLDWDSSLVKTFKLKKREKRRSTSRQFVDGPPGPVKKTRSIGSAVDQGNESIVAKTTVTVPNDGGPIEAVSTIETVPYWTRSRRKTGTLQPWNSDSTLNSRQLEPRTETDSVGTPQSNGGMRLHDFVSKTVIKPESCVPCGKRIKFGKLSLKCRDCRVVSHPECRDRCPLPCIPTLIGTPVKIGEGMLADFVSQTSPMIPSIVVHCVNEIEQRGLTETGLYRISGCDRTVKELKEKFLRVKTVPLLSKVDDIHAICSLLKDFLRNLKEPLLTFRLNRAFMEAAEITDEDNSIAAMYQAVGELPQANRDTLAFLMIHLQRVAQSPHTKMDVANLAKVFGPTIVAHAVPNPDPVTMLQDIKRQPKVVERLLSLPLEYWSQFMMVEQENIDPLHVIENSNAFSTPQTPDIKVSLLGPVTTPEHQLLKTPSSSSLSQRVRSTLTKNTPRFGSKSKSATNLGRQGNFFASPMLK

[17] = target: Delta-type opioid receptor (Homo sapiens, UniProt P41143); assay: Counterscreen for agonists of heterodimerization of the mu 1 (OPRM1) and delta 1 (OPRD1) opioid receptors: Luminescence-based cell-based high throughput dose response assay to identify agonists of OPRD1 homodimerization. [Related pubchem assays (depositor defined):AID504326, AID504355, AID504692, AID504904, AID504905]; assay type: functional
Mu-type opioid receptor = Mu-type opioid receptor (Homo sapiens, UniProt P35372); assay: Counterscreen for agonists of heterodimerization of the mu 1 (OPRM1) and delta 1 (OPRD1) opioid receptors: Luminescence-based cell-based high throughput dose response assay to identify agonists of OPRM1 homodimerization.; assay type: functional;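 also: U2OS cells expressing OPRM1 and beta-arrestin as split beta-galactosidase partners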
[18] = target: 5-hydroxytryptamine receptor 5A (Homo sapiens, UniProt P47898); assay: Counterscreen for agonists of OPRM1-OPRD1 heterodimerization: luminescence-based cell-based high throughput dose response assay to identify agonists of 5-hydroxytryptamine (serotonin) 5A receptor (HTR5A). [Related pubchem assays (depositor defined):AID504326, AID504355, AID504692, AID504904, AID504905]; assay type: functional
Chain of 5-hydroxytryptamine receptor 5A (P47898 whole entry): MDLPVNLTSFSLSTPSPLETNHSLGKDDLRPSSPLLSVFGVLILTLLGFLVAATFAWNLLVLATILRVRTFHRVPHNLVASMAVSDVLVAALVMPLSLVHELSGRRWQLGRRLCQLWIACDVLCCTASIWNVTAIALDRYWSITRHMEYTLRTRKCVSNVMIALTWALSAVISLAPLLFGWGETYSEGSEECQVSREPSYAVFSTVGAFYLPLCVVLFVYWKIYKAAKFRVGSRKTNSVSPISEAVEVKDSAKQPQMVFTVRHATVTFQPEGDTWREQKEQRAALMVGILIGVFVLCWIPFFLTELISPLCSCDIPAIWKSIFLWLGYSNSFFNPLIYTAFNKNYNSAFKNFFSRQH

T1 sequence (P32245 whole entry): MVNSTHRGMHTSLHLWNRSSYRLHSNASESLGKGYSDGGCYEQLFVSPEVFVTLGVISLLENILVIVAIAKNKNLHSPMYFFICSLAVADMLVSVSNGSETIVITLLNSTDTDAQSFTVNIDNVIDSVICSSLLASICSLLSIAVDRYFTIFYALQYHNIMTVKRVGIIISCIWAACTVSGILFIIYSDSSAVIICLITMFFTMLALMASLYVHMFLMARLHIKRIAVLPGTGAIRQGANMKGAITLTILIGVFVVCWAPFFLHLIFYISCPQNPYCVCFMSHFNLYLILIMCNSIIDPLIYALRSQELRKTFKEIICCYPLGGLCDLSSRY
Chain of Mu-type opioid receptor (P35372 whole entry): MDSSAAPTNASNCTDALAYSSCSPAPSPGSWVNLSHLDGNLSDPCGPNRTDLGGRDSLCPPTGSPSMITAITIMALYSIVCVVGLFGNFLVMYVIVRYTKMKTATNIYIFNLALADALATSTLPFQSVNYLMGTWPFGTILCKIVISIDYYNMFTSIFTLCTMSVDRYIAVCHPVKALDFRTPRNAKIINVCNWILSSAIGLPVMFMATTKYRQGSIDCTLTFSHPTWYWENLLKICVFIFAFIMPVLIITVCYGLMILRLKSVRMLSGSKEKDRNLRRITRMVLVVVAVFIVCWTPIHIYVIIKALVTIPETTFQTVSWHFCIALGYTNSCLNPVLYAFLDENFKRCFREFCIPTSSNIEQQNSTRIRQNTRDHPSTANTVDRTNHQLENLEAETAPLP
Chain of Delta-type opioid receptor (P41143 whole entry): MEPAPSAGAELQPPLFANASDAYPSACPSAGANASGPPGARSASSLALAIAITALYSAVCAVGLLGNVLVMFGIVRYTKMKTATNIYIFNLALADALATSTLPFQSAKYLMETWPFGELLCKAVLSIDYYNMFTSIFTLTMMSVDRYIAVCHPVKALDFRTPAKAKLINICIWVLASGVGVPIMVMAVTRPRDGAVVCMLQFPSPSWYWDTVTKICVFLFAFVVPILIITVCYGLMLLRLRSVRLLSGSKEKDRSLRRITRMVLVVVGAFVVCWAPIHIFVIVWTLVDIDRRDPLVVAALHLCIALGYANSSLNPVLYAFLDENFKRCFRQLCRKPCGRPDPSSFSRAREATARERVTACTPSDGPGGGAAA

SMILES: CCOC(=O)c1c(NC(=O)C2c3ccccc3Oc3ccccc32)sc(C(N)=O)c1C
- IC50 (Melanocortin receptor 4 [1]): > 21.5 µM (inactive)
- IC50 [2]: 32.5 µM (inactive)

SMILES: C=CCSc1nc2ccccc2n1C(=O)/C=C/c1ccc(OC)c(OC)c1
- EC50 [3]: > 120 µM (not active)
- EC50 [4]: > 120 µM (not active)
- EC50 (H4): > 120 µM (not active)
- IC50 (Vero [5]): > 25 µM (active)
- AC50 (INS1): 8.85 µM (active)
- CC50 (Vero [6]): 9.91 µM (active)
- AC50 [7]: 1.31 µM (active)
- AC50 [8]: 49.4 µM (active)
- AC50 [9]: 12.5 µM (active)
- IC50 (Interleukin-8 [10]): > 79 µM (inactive)
- IC50 (Interleukin-8 [11]): 0.685 µM (active)

SMILES: CC(=O)Nc1cc(-c2cccc(F)c2)cn2c(-c3ccc(F)cc3)cnc12
- EC50 (Melanocortin receptor 4 [12]): > 89.2 µM (inactive)

SMILES: CCOc1ccc(-c2cc(C(=O)N/N=C/c3ccc(O)cc3)c3ccccc3n2)cc1
- AC50 (HEK293): 5.12 µM (active)
- CC50 (Vero [6]): 14.9 µM (active)

SMILES: CCN(CC)S(=O)(=O)c1ccc(N2CCOCC2)c(NC(=O)c2ccccc2F)c1
- IC50 (Melanocortin receptor 4 [1]): > 64.6 µM (inactive)
- IC50 [2]: > 64.6 µM (inactive)

SMILES: Oc1ccc(NC(=S)N=Nc2c(O)[nH]c3ccc(Br)cc23)cc1
- AC50 [13]: 12.1 µM (active)
- EC50 (Protein RecA): 13.7 µM (active)
- AC50 [14]: 1.2 µM (active)
- CC50 [15]: 61.5 µM (active)
- IC50 [16]: 152 µM (active)

SMILES: CN(C)CCCN(C(=O)c1ccc(S(=O)(=O)N(C)Cc2ccccc2)cc1)c1nc2c(F)cccc2s1
- EC50 [17]: > 30.8 µM (inactive)
- EC50 (Mu-type opioid receptor): 26.2 µM (inactive)
- EC50 [18]: > 92.5 µM (inactive)
